In ChEMBL document CHEMBL5537135, “Novel antimicrobial peptides modified with fluorinated sulfono-γ-AA having high stability and targeting multidrug-resistant bacteria infections” (Eur J Med Chem, 2024):
Converted amounts (≈) assume the structure as drawn. The source made the active and inactive calls. The calls are words filed in the database; no cut-off is given here. Numbered stars: 1 amine (or outer) side, 2 acyl side, 3 side chain; on linkers, the order of the positions; unused ones are H or OH. Square brackets hold non-standard residues; d marks the D form. Peptide text beside a SMILES is read from it. * marks the point of attachment. X3 = CC(C)C[C@@H](CN(CC(N)=O)S(=O)(=O)c1ccc(C(F)(F)F)cc1)N*; X2 = CC(C)C[C@H](N)CN(CC(=O)[*:2])[*:1]; X1 = O=S(=O)(c1ccc(C(F)(F)F)cc1)*

Key:
Acinetobacter baumannii = assay: Antimicrobial activity against Acinetobacter baumannii ATCC 19606 assessed as inhibition of visible bacterial growth incubated for 18 hrs by broth-dilution method; type: functional
Salmonella typhimurium = assay: Antimicrobial activity against Salmonella typhimurium ATCC 14028 assessed as inhibition of visible bacterial growth incubated for 18 hrs by broth-dilution method; type: functional, Salmonella enterica subsp. enterica serovar Typhimurium; conditions: Salmonella enterica
Staphylococcus aureus [1] = assay: Antimicrobial activity against Staphylococcus aureus ATCC 25923 assessed as inhibition of visible bacterial growth incubated for 18 hrs by broth-dilution method; type: functional
Staphylococcus aureus [2] = assay: Antimicrobial activity against methicillin-resistant Staphylococcus aureus ATCC 33591 assessed as inhibition of visible bacterial growth incubated for 18 hrs by broth-dilution method; type: functional
Pseudomonas aeruginosa [3] = assay: Antimicrobial activity against multidrug-resistant Pseudomonas aeruginosa 061 assessed as inhibition of visible bacterial growth incubated for 18 hrs by broth-dilution method; type: functional
Pseudomonas aeruginosa [4] = assay: Antimicrobial activity against multidrug-resistant Pseudomonas aeruginosa 073 assessed as inhibition of visible bacterial growth incubated for 18 hrs by broth-dilution method; type: functional
Pseudomonas aeruginosa [5] = assay: Antimicrobial activity against multidrug-resistant Pseudomonas aeruginosa 085 assessed as inhibition of visible bacterial growth incubated for 18 hrs by broth-dilution method; type: functional
Pseudomonas aeruginosa [6] = assay: Antimicrobial activity against multidrug-resistant Pseudomonas aeruginosa 119 assessed as inhibition of visible bacterial growth incubated for 18 hrs by broth-dilution method; type: functional
Pseudomonas aeruginosa [7] = assay: Antimicrobial activity against multidrug-resistant Pseudomonas aeruginosa 124 assessed as inhibition of visible bacterial growth incubated for 18 hrs by broth-dilution method; type: functional
Pseudomonas aeruginosa [8] = assay: Antimicrobial activity against multidrug-resistant Pseudomonas aeruginosa 125 assessed as inhibition of visible bacterial growth incubated for 18 hrs by broth-dilution method; type: functional
Pseudomonas aeruginosa [9] = assay: Antimicrobial activity against multidrug-resistant Pseudomonas aeruginosa 156 assessed as inhibition of visible bacterial growth incubated for 18 hrs by broth-dilution method; type: functional
Pseudomonas aeruginosa [10] = assay: Antimicrobial activity against multidrug-resistant Pseudomonas aeruginosa 157 assessed as inhibition of visible bacterial growth incubated for 18 hrs by broth-dilution method; type: functional
Pseudomonas aeruginosa [11] = assay: Antimicrobial activity against multidrug-resistant Pseudomonas aeruginosa 516 assessed as inhibition of visible bacterial growth incubated for 18 hrs by broth-dilution method; type: functional
Staphylococcus aureus [12] = assay: Antimicrobial activity against methicillin-resistant Staphylococcus aureus 1 assessed as inhibition of visible bacterial growth incubated for 18 hrs by broth-dilution method; type: functional
Staphylococcus aureus [13] = assay: Antimicrobial activity against methicillin-resistant Staphylococcus aureus 2 assessed as inhibition of visible bacterial growth incubated for 18 hrs by broth-dilution method; type: functional
Staphylococcus aureus [14] = assay: Antimicrobial activity against methicillin-resistant Staphylococcus aureus 3 assessed as inhibition of visible bacterial growth incubated for 18 hrs by broth-dilution method; type: functional
Staphylococcus aureus [15] = assay: Antimicrobial activity against methicillin-resistant Staphylococcus aureus 4 assessed as inhibition of visible bacterial growth incubated for 18 hrs by broth-dilution method; type: functional
Staphylococcus aureus [16] = assay: Antimicrobial activity against methicillin-resistant Staphylococcus aureus 5 assessed as inhibition of visible bacterial growth incubated for 18 hrs by broth-dilution method; type: functional
Staphylococcus aureus [17] = assay: Antimicrobial activity against methicillin-resistant Staphylococcus aureus 8 assessed as inhibition of visible bacterial growth incubated for 18 hrs by broth-dilution method; type: functional
Staphylococcus aureus [18] = assay: Antimicrobial activity against methicillin-resistant Staphylococcus aureus 10 assessed as inhibition of visible bacterial growth incubated for 18 hrs by broth-dilution method; type: functional
Erythrocyte = assay: Hemolytic activity against mouse Red blood cell incubated for 1 hr; type: toxicity, cell-based
Staphylococcus aureus [19] = assay: Antimicrobial activity against Staphylococcus aureus ATCC 25923 assessed as reduction in bacterial growth in presence of Ca2+; type: functional
Pseudomonas aeruginosa [20] = assay: Antimicrobial activity against Pseudomonas aeruginosa ATCC 27853 assessed as fold increase in MIC in presence of human serum; type: functional
Staphylococcus aureus [21] = assay: Antimicrobial activity against Staphylococcus aureus ATCC 25923 assessed as fold increase in MIC in presence of human serum; type: functional
Staphylococcus aureus [22] = assay: Antibiofilm activity against Staphylococcus aureus ATCC 25923 assessed as inhibition of biofilm formation at 4 to 8 microg/ml incubated for 24 hrs by crystal violet staining based analysis; type: functional; conditions: dose 4-8 µg/ml, at 4 to 8 µg/mL
[23] = test system: Staphylococcus epidermidis; assay: Antibiofilm activity against Staphylococcus epidermidis ATCC 12228 assessed as inhibition of biofilm formation at 4 to 8 microg/ml incubated for 24 hrs by crystal violet staining based analysis; type: functional; conditions: dose 4-8 µg/ml, at 4 to 8 µg/mL
Pseudomonas aeruginosa [24] = assay: Bactericidal activity against Pseudomonas aeruginosa ATCC 27853 at 2 to 4 times MIC; type: functional, organism-based
Staphylococcus aureus [25] = assay: Bactericidal activity against Staphylococcus aureus ATCC 33591 at 2 to 4 times MIC; type: functional, organism-based
Staphylococcus aureus [26] = assay: Antibiofilm activity against methicillin-resistant Staphylococcus aureus ATCC 33591 assessed as biofilm eradication at 4 times MIC incubated for 2 to 4 hrs by crystal violet staining based assay; type: functional, organism-based; conditions: time 2-4 hrs
Pseudomonas aeruginosa [27] = assay: Antibiofilm activity against Pseudomonas aeruginosa ATCC 27853 assessed as biofilm thickness at 8 microg/ml incubated for 24 hrs by confocal laser scanning microscopic analysis; type: functional; conditions: dose 8 µg/ml
Staphylococcus aureus [28] = assay: Antibiofilm activity against methicillin-resistant Staphylococcus aureus ATCC 33591 assessed as biofilm thickness at 8 microg/ml incubated for 24 hrs by confocal laser scanning microscopic analysis; type: functional; conditions: dose 8 µg/ml
Pseudomonas aeruginosa [29] = assay: Antibiofilm activity against Pseudomonas aeruginosa ATCC 27853 assessed as biofilm thickness at 1 times MIC90 incubated for 24 hrs by confocal laser scanning microscopic analysis; type: functional
Staphylococcus aureus [30] = assay: Antibiofilm activity against methicillin-resistant Staphylococcus aureus ATCC 33591 assessed as biofilm thickness at 1 times MIC90 incubated for 24 hrs by confocal laser scanning microscopic analysis; type: functional
Staphylococcus aureus [31] = assay: Antibiofilm activity against methicillin-resistant Staphylococcus aureus ATCC 33591 assessed as biofilm thickness at 2 times MIC90 incubated for 24 hrs by confocal laser scanning microscopic analysis; type: functional
Pseudomonas aeruginosa [32] = assay: Bactericidal activity against Pseudomonas aeruginosa ATCC 27853 assessed as reduction in viable bacteria at 4 times MIC measured for 5 min by time-kill assay; type: functional, organism-based
Staphylococcus aureus [33] = assay: Antibacterial activity against drug-susceptible Staphylococcus aureus ATCC 33591 assessed as reduction in microbial growth; type: functional
Pseudomonas aeruginosa [34] = assay: Antibacterial activity against drug-susceptible Pseudomonas aeruginosa […] assessed as reduction in microbial growth; type: functional
Pseudomonas aeruginosa [35] = assay: Synergistic antibacterial activity against Pseudomonas […] assessed as fractional inhibitory concentration index in presence of polymyxin B by checkerboard assay; type: functional
Staphylococcus aureus [36] = assay: Additive antibacterial activity against methicillin-resistant Staphylococcus aureus S5 assessed as fractional inhibitory concentration index in presence of amoxicillin by checkerboard assay; type: functional
Staphylococcus aureus [37] = assay: Antimicrobial activity against Staphylococcus aureus ATCC 33591 at 1 times MIC incubated for 18 hrs in presence of LPS/LTA; type: functional, organism-based
Cell membrane [38] = assay: Induction of outer membrane permeabilization in Pseudomonas aeruginosa ATCC 27853 assessed as increase in NPN uptake measured upto 20 mins by NPN-dye based fluorescence analysis
Cell membrane [39] = assay: Disruption of membrane integrity in Pseudomonas aeruginosa ATCC 27853 incubated for 30 mins by PI staining based CLSM analysis
Cell membrane [40] = assay: Disruption of membrane integrity in Staphylococcus aureus ATCC 33591 incubated for 30 mins by PI staining based CLSM analysis; type: cell membranes

CC(C)C[C@H](N)CN(CC(=O)N[C@@H](CCCCN)C(=O)N[C@@H](CC(C)C)C(=O)N[C@@H](CC(C)C)C(=O)N[C@@H](CCCCN)C(=O)N[C@@H](CCCCN)C(=O)N[C@@H](CC(C)C)C(=O)N[C@@H](CC(C)C)C(N)=O)S(=O)(=O)c1ccc(C(F)(F)F)cc1 (X1-[X2]KLLKKLL-NH2)
MIC (Acinetobacter baumannii): 16 µg/mL (≈ 13.1 µM)
MIC (Salmonella typhimurium): 8 µg/mL (≈ 6.56 µM)
MIC (Staphylococcus aureus [1]): 4 µg/mL (≈ 3.28 µM)
MIC (Staphylococcus aureus [2]): 4 µg/mL (≈ 3.28 µM)
MIC (Pseudomonas aeruginosa [3]): 8 µg/mL (≈ 6.56 µM)
MIC (Pseudomonas aeruginosa [4]): 8 µg/mL (≈ 6.56 µM)
MIC (Pseudomonas aeruginosa [5]): 8 µg/mL (≈ 6.56 µM)
MIC (Pseudomonas aeruginosa [6]): 8 µg/mL (≈ 6.56 µM)
MIC (Pseudomonas aeruginosa [7]): 4 µg/mL (≈ 3.28 µM)
MIC (Pseudomonas aeruginosa [8]): 8 µg/mL (≈ 6.56 µM)
MIC (Pseudomonas aeruginosa [9]): 4 µg/mL (≈ 3.28 µM)
MIC (Pseudomonas aeruginosa [10]): 4 µg/mL (≈ 3.28 µM)
MIC (Pseudomonas aeruginosa [11]): 4 µg/mL (≈ 3.28 µM)
MIC (Staphylococcus aureus [12]): 4 µg/mL (≈ 3.28 µM)
MIC (Staphylococcus aureus [13]): 4 µg/mL (≈ 3.28 µM)
MIC (Staphylococcus aureus [14]): 4 µg/mL (≈ 3.28 µM)
MIC (Staphylococcus aureus [15]): 4 µg/mL (≈ 3.28 µM)
MIC (Staphylococcus aureus [16]): 4 µg/mL (≈ 3.28 µM)
MIC (Staphylococcus aureus [17]): 4 µg/mL (≈ 3.28 µM)
MIC (Staphylococcus aureus [18]): 8 µg/mL (≈ 6.56 µM)
MHC (Erythrocyte): 256 µg/mL
MIC (Staphylococcus aureus [19]): 32 µg/mL
fold change (FC) (Pseudomonas aeruginosa [20]): 2
fold change (FC) (Staphylococcus aureus [21]): 2
inhibition (INH) (Staphylococcus aureus [22]): 50%
inhibition (INH) [23]: 50%
Activity (Pseudomonas aeruginosa [24]): Active
Activity (Staphylococcus aureus [25]): Active
Activity (Staphylococcus aureus [26]): Active
Activity (Pseudomonas aeruginosa [27]): 20 um
Activity (Staphylococcus aureus [28]): 20 um
Activity (Pseudomonas aeruginosa [29]): 40 um
Activity (Staphylococcus aureus [30]): 40 um
Activity (Staphylococcus aureus [31]): 20 um
Activity (Pseudomonas aeruginosa [32]): Active
MIC (Staphylococcus aureus [33]): 4 µg/mL
MIC (Pseudomonas aeruginosa [34]): 4 µg/mL
fractional inhibitory concentration index (FICI) (Pseudomonas aeruginosa [35]): 0.5
fractional inhibitory concentration index (FICI) (Staphylococcus aureus [36]): 1
Activity (Staphylococcus aureus [37]): inactive
Activity (Cell membrane [38]): Dose-Dependent Effect
Activity (Cell membrane [39]): Active
Activity (Cell membrane [40]): Active

CC(C)C[C@@H](CN(CC(N)=O)S(=O)(=O)c1ccc(C(F)(F)F)cc1)NC(=O)[C@H](CCCCN)NC(=O)[C@H](CCCCN)NC(=O)[C@H](CC(C)C)NC(=O)[C@H](CC(C)C)NC(=O)[C@H](CCCCN)NC(=O)[C@H](CC(C)C)NC(=O)[C@@H](N)Cc1ccccc1 (H-FLKLLKK-X3)
MIC (Acinetobacter baumannii): 16 µg/mL (≈ 12.8 µM)
MIC (Salmonella typhimurium): 16 µg/mL (≈ 12.8 µM)
MIC (Staphylococcus aureus [1]): 4 µg/mL (≈ 3.19 µM)
MIC (Staphylococcus aureus [2]): 4 µg/mL (≈ 3.19 µM)
MIC (Pseudomonas aeruginosa [3]): 8 µg/mL (≈ 6.39 µM)
MIC (Pseudomonas aeruginosa [4]): 16 µg/mL (≈ 12.8 µM)
MIC (Pseudomonas aeruginosa [5]): 16 µg/mL (≈ 12.8 µM)
MIC (Pseudomonas aeruginosa [6]): 8 µg/mL (≈ 6.39 µM)
MIC (Pseudomonas aeruginosa [7]): 8 µg/mL (≈ 6.39 µM)
MIC (Pseudomonas aeruginosa [8]): 16 µg/mL (≈ 12.8 µM)
MIC (Pseudomonas aeruginosa [9]): 16 µg/mL (≈ 12.8 µM)
MIC (Pseudomonas aeruginosa [10]): 8 µg/mL (≈ 6.39 µM)
MIC (Pseudomonas aeruginosa [11]): 16 µg/mL (≈ 12.8 µM)
MIC (Staphylococcus aureus [12]): 8 µg/mL (≈ 6.39 µM)
MIC (Staphylococcus aureus [13]): 4 µg/mL (≈ 3.19 µM)
MIC (Staphylococcus aureus [14]): 4 µg/mL (≈ 3.19 µM)
MIC (Staphylococcus aureus [15]): 8 µg/mL (≈ 6.39 µM)
MIC (Staphylococcus aureus [16]): 8 µg/mL (≈ 6.39 µM)
MIC (Staphylococcus aureus [17]): 4 µg/mL (≈ 3.19 µM)
MIC (Staphylococcus aureus [18]): 8 µg/mL (≈ 6.39 µM)
MHC (Erythrocyte): 256 µg/mL
MIC (Staphylococcus aureus [19]): 32 µg/mL
fold change (FC) (Pseudomonas aeruginosa [20]): 2
fold change (FC) (Staphylococcus aureus [21]): 2
inhibition (INH) (Staphylococcus aureus [22]): 50%
inhibition (INH) [23]: 50%
Activity (Pseudomonas aeruginosa [24]): Active
Activity (Staphylococcus aureus [25]): Active
Activity (Staphylococcus aureus [26]): Active
Activity (Pseudomonas aeruginosa [27]): 20 um
Activity (Staphylococcus aureus [28]): 20 um
Activity (Pseudomonas aeruginosa [29]): 40 um
Activity (Staphylococcus aureus [30]): 40 um
Activity (Staphylococcus aureus [31]): 20 um
Activity (Pseudomonas aeruginosa [32]): Active
MIC (Staphylococcus aureus [33]): 4 µg/mL
MIC (Pseudomonas aeruginosa [34]): 4 µg/mL
fractional inhibitory concentration index (FICI) (Pseudomonas aeruginosa [35]): 0.75
fractional inhibitory concentration index (FICI) (Staphylococcus aureus [36]): 0.5
Activity (Staphylococcus aureus [37]): inactive
Activity (Cell membrane [38]): Dose-Dependent Effect
Activity (Cell membrane [39]): Active
Activity (Cell membrane [40]): Active
